Reference: US9034655B2, “Highly water-soluble, cationic luminescent labels” (SETA BioMedicals, LLC, priority 2006, dated 2015)

Experiments:
[1] = Fluorescence (luminescent) lifetime of dyes and conjugates; format: physicochemical; conditions: for luminescent lifetime (τ): solvent not stated
Text: Typical assays based on the measurement of the fluorescence lifetime as a parameter include for example FRET (fluorescence resonance energy transfer) assays. The binding between a fluorescent donor labeled species (typically an antigen, or a ligand) and a fluorescent acceptor labeled species may be accompanied by a change in the intensity and/or the fluorescence lifetime. The lifetime can be measured using intensity-(Time corrlated single photon counting TCSPC) or phase-modulation-based methods (J. R. LAKOWICZ, PRINCIPLES OF FLUORESCENCE SPECTROSCOPY (2nd Ed. 1999)).

[2] = Fluorescence quantum yield (QY); format: physicochemical
[3] = Absorption and emission maxima (spectral properties); format: physicochemical
Text: The synthesis of representative dyes is provided in the Examples Section. The structures, absorption and emission data as well as the luminescent lifetime in different solvents of specific dyes are given in Table 1.

[4] = cited from earlier work

Row | Compound | Lifetime [ns] ([1]; Ethanol (Table 1)) | Lifetime [ns] ([1]; Water (Table 1)) | (QY [%]) ([2]; Ethanol (Table 1)) | λ(abs) [nm] ([3]; Ethanol) | λ(fl) [nm] ([3]; Ethanol) | λ(abs) [nm] ([3]; Water) | λ(fl) [nm] ([3]; Water) | (QY [%]) ([2]; Water (Table 1)) | further results
1 | CN1C[N+](C)(C)Cc2cc3c4c(cccc4c21)C(=O)N(c1ccc(C(=O)O)cc1)C3=O.[Cl-] [Dye 3, 5-(4-carboxyphenyl)-9,9,11-trimethyl-4,6-dioxo-5,6,8,9,10,11-hexahydro-4H-isoquino[4,5-g,h]quinazolin-9-ium chloride] | – | – | – | – | – | – | – | – | lifetime in water ([1]; Water): 9.3 ns; overall decrease in fluorescence lifetime ([1]; free dye in water vs IgG conjugate at D/P about 8): 10%; lifetime labeled to IgG ([1]; labeled to IgG at a D/P ratio of about 1): 8.9 ns; lifetime labeled to IgG ([1]; labeled to IgG, D/P ratio of about 8): 8.4 ns
2 | CN1C[N+](C)(C)Cc2c1cc1c3c(cccc23)C(=O)N(c2ccccc2)C1=O [Dye 6, 8,10,10-trimethyl-4,6-dioxo-5-phenyl-5,6,8,9,10,11-hexahydro-4H-isoquino[5,4-fg]quinazolin-10-ium hexafluorophosphate] | 23.3 ns | 22.9 ns | 51% | 414 nm | 513 nm | 426 nm | 545 nm | – | luminescent lifetime (τ) [1]: around 23 ns
3 | CN1C[N+](C)(C)Cc2c1cc1c3c(cccc23)C(=O)N(CCCCCC(=O)O)C1=O [Dye 4a] | – | – | – | – | – | – | – | – | luminescent lifetime (τ) [1]: 26 ns
4 | CN1C[N+](C)(C)Cc2cc3c4c(cccc4c21)C(=O)N(c1ccc(C(=O)O)cc1)C3=O.[Cl-] [Dye 3a] | – | 9.4 ns | – | – | – | 405 nm | 515 nm | 72% | –
5 | CCOC(=O)c1c(C)nn2c(=O)c3cccc4c5c(cc(c43)c12)C[N+](C)(C)CN5C.[Cl-] [Dye 8] | 7.8 ns | 5.7 ns | 44% | 436 nm | 584 nm | 449 nm | 600 nm | 7% | Lifetime [ns] ([1]; Water + BSA): 6.1 ns; λ(abs) [nm] ([3]; Water + BSA): 449 nm; λ(fl) [nm] ([3]; Water + BSA): 600 nm
6 | fluorescein-isothiocyanate [FITC] | – | – | – | – | – | – | – | – | lifetime losses when covalently labeled to proteins ([4]; D/P ~ 8, Lakowicz et al. 2004): ~40%; lifetime τ ([4]; free label): 4.0 ns
7 | CN(C)c1ccc2c3c(cccc13)C(=O)N(c1ccccc1)C2=O [Dye 1, phenylimide of 4-dimethyl aminonaphthalic acid] | – | – | – | – | – | – | – | – | Lifetime [ns] ([1]; Ethanol): <<1 ns; lifetime in ethanol ([1]; Ethanol): < 1 ns; lifetime in water compared with ethanol ([1]; Water): even further reduced; (QY [%]) ([2]; Ethanol): 0.5%; Q.Y. in water compared with ethanol ([2]; Water): even further reduced
8 | CN1C[N+](C)(C)Cc2cc3c4c(cccc4c21)C(=O)N(c1ccc(C(=O)ON2C(=O)CCC2=O)cc1)C3=O [Dye 3-NHS] | 8.0 ns | 9.3 ns | – | 390 nm | 500 nm | 404 nm | 518 nm | – | –
9 | CN1C[N+](C)(C)Cc2c1ccc1cc3ccccc3cc21 [Dye 13, 2,2,4-trimethyl-1,2,3,4-tetrahydronaphtho[2,3-f]quinazolin-2-ium hexafluorophosphate] | – | 20.9 ns | 30% | 395 nm | 462 nm | 398 nm | 481 nm | 40% | lifetime in water ([1]; Water): 20 ns
10 | CN1C[N+](C)(C)Cc2cc3c4c(cccc4c21)C(=O)N(c1ccccc1)C3=O.[Cl-] [Dye 5, 9,9,11-trimethyl-4,6-dioxo-5-phenyl-5,6,8,9,10,11-hexahydro-4H-isoquino[4,5-g,h]quinazolin-9-ium chloride] | 8.5 ns | 9.4 ns | 58% | 393 nm | 498 nm | 405 nm | 515 nm | 72% | Lifetime [ns] ([1]; DMF): 9.0 ns; Lifetime [ns] ([1]; Ethanol): 8.5 ns; Lifetime [ns] ([1]; Water): 9.4 ns; melting point: 235 °C; (QY [%]) ([2]; Ethanol): 58%; (QY [%]) ([2]; Water): 75%; λ(abs) [nm] ([3]; DMF): 393 nm; λ(fl) [nm] ([3]; DMF): 500 nm
